Values quoted from earlier work, collected in patent US20020086070A1, “Anti-inflammatory and connective tissue repair formulations” (priority 2000, published 2002).

What was measured:
COX-2 over COX-1 = settings: specificity for COX-2 over COX-1
[1] = tested on: arachidonic acid-induced inflammatory ear edema; settings: mice
skin tumor formation = settings: following initiation with a chemical challenge
[2] = target: cyclooxygenase-2 induction; settings: TNFalpha-dependent induction; read-out: IC(50) for suppression of TNFalpha-dependent cyclooxygenase-2 induction

For `CC(=O)Oc1ccccc1C(=O)O` [aspirin], which COX-2 specificity (COX-2 over COX-1) is on record?
The COX-2 specificity was 0.6.

Which “inhibition of arachidonic acid-induced inflammatory ear edema” value [1] does the source give for `CC(C)=CCC1=C(O)[C@](O)(CC=C(C)C)C(=O)C(C(=O)CC(C)C)=C1O` [humulon] here?
Its value is “inhibited”.

What about the “inhibition of skin tumor formation” value (skin tumor formation) of the same compound?
Its value is “inhibited skin tumor formation”.

What about the IC50 [2] of the same compound?
The IC50 was ~30 nM.
